In PubChem BioAssay (NCI):
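Each compound was tested at five concentrations against cells in 96-well plates for 48 hours. TGI denotes the concentration required for complete inhibition of growth.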

Experiments:
Assay in all cases: NCI anticancer screen, dose series, 48 h
[1] = system: 786-0 renal
[2] = system: A549 NSCLC
[3] = system: ACHN renal
[4] = system: CAKI-1 renal
[5] = system: CCRF-CEM leukemia
[6] = system: COLO 205 colon
[7] = system: DLD-1 colon
[8] = system: DMS 273 small cell lung
[9] = system: EKVX NSCLC
[10] = system: HCT-116 colon
[11] = system: HCT-15 colon
[12] = system: HL-60(TB) leukemia
[13] = system: HOP-18 NSCLC
[14] = system: HOP-62 NSCLC
[15] = system: HOP-92 NSCLC
[16] = system: HT29 colon
[17] = system: IGROV1 ovarian
[18] = system: K-562 leukemia
[19] = system: KM12 colon
[20] = system: KM20L2 colon
[21] = system: LOX IMVI melanoma
[22] = system: LXFL 529 NSCLC
[23] = system: M14 melanoma
[24] = system: M19-MEL melanoma
[25] = system: MALME-3M melanoma
[26] = system: NCI-H226 lung
[27] = system: NCI-H23 lung
[28] = system: NCI-H460 lung
[29] = system: NCI-H522 lung
[30] = system: OVCAR-3 ovarian
[31] = system: OVCAR-4 ovarian
[32] = system: OVCAR-5 ovarian
[33] = system: OVCAR-8 ovarian
[34] = system: RPMI-8226 leukemia
[35] = system: RXF 393 renal
[36] = system: RXF-631 renal
[37] = system: SF-268 CNS
[38] = system: SF-295 CNS
[39] = system: SF-539 CNS
[40] = system: SK-MEL-2 melanoma
[41] = system: SK-MEL-28 melanoma
[42] = system: SK-MEL-5 melanoma
[43] = system: SK-OV-3 ovarian
[44] = system: SN12C renal
[45] = system: SNB-19 CNS
[46] = system: SNB-75 CNS
[47] = system: SNB-78 CNS
[48] = system: SR leukemia
[49] = system: SW-620 colon
[50] = system: TK-10 renal
[51] = system: U251 CNS
[52] = system: UACC-257 melanoma
[53] = system: UACC-62 melanoma
[54] = system: UO-31 renal
[55] = system: XF 498 CNS
[56] = system: A498 renal
[57] = system: DMS 114 small cell lung
[58] = system: HCC-2998 colon
[59] = system: MOLT-4 leukemia

Measured: TGI

COC1(OC)CC2CCCCC2=C(C)N1S(=O)(=O)c1ccccc1 (stereo unspecified)
> 100 µM: [1] | [2] | [3] | [4] | [5] | [6] | [7] | [8] | [9] | [10] | [11] | [12] | [13] | [14] | [15] | [16] | [17] | [18] | [19] | [20] | [21] | [22] | [23] | [24] | [25] | [26] | [27] | [28] | [29] | [30] | [31] | [32] | [33] | [34] | [35] | [36] | [37] | [38] | [39] | [40] | [41] | [42] | [43] | [44] | [45] | [46] | [47] | [48] | [49] | [50] | [51] | [52] | [53] | [54] | [55]

C[C@]12CCC(=O)C[C@H]1CCC(O)[C@@H]2Br (stereo partly specified)
> 100 µM: [1] | [56] | [2] | [3] | [4] | [5] | [6] | [7] | [57] | [8] | [58] | [10] | [11] | [12] | [13] | [14] | [15] | [16] | [17] | [18] | [19] | [20] | [21] | [22] | [23] | [24] | [25] | [59] | [26] | [27] | [28] | [29] | [30] | [31] | [32] | [33] | [34] | [36] | [37] | [38] | [39] | [40] | [41] | [42] | [43] | [44] | [45] | [46] | [48] | [49] | [50] | [51] | [52] | [53] | [54] | [55]
